# Patent US7947505B2, “Method for testing efficacy of antithrombotic agent” (priority 2005, dated 2011)
# Where two headings read alike, the source gives them in different places.
# What was measured:
# blood [1] = experiment: Thromboelastograph of blood with no antithrombotic agent administered, with heparin or argatroban with or without ADP or collagen added; format: cell-based, human; settings: for change of the R value lengthened by anticoagulant when ADP or collagen is added: blood coagulation function normal, no antithrombotic agent administered, heparin or argatroban present
# Source text: (§1) The present invention is described below based on embodiments. The thromboelastograph will be described first. A thromboelastograph is an apparatus that tracks the process of blood coagulation by the clot elasticity in whole blood. […] The reaction time R representing the time when the range of the clot elasticity value reaches 2 mm, the coagulation time K representing the time when the range of the clot elasticity value reaches 20 mm, the maximum amplitude MA of the range of the clot elasticity values, the angle ANG formed by a tangent drawn on the graph of the changes in clot elasticity, and the like are obtained as numerical values based on the measurement chart, as shown in FIG. 1. The measurement procedure itself merely comprises placing the blood in a cuvette and beginning measurement. A C-TEG3000T machine made by Haemoscope of the United States was used as the thromboelastograph in the examples below.
# (§2) The test method using the thromboelastograph will be described next in itemized form. 1) A thromboelastograph is used in measurement. The thromboelastograph used is one in which the measurement part has two or more channels, and the amount of fluid measured is 0.36 mL. 2) The blood of the patient being administered an antithrombotic agent is sampled by a blood sampling tube for coagulation testing. […] 3) 0.02 mL of 0.2 M calcium chloride and 0.32 mL of blood from the blood sampling tube are mixed with 0.01 mL of anticoagulant and 0.01 mL of physiological saline in the first measurement part (first channel) of the thromboelastograph. The calcium chloride neutralizes the citric acid admixed in the blood sampling tube, and coagulation begins. 4) 0.02 mL of 0.2 M calcium chloride and 0.32 mL of blood from the blood sampling tube are mixed with 0.01 mL of anticoagulant and 0.01 mL of adenosine diphosphate (ADP) or collagen in the second measurement part (second channel) of the thromboelastograph. The adenosine diphosphate (ADP) used here is 0.2 μmol of commercial reagent powder dissolved in 0.67 mL of physiological saline. Similarly, the collagen is 1 mg/mL stock solution diluted to a 36% solution by physiological saline. 5) The first channel and second channel are measured simultaneously by the thromboelastograph, and the R values measured on the thromboelastograph are compared. […] It is necessary in this case to strengthen the antithrombotic effect by measures such as increasing the dose or changing the antithrombotic agent being administered. The platelets in the second channel are believed to be readily activated by the ADP or collagen, and blood coagulation is accelerated. […] It is believed in this case that the platelets in the second channel are not readily activated by the ADP or collagen, and blood coagulation is not accelerated.
# (§3) In the following examples and comparative examples, the addition of 0.02 mL of physiological saline of 0.2 M calcium chloride to the sampled blood and the addition of […] to the system without ADP or collagen added are common to all examples and are omitted from the explanations of each example and comparative example.
# An example of the administration of sulpyrine will be described next. […] The measurement was the same as in Example 1. Blood with 0.1 U/mL of heparin or 0.31 μg/mL of argatroban added and blood with 8.3 μM of ADP or 10 μg/mL of collagen added to these were measured simultaneously by using a thromboelastograph.
# An example of the administration of Pletaal will be described next. […] The amounts of heparin, argatroban, ADP, and collagen added were the same as in Example 2.
# As a comparative example, blood obtained when no thrombotic agent (*1) had been administered was measured by thromboelastograph. Specifically, systems of heparin, ADP, and collagen added to blood that contained no thrombotic agent and, similarly, systems of argatroban, ADP, and collagen added to blood that contained no thrombotic agent were measured using a thromboelastograph.
# blood [2] = settings: Hep 0.1 U/mL, ARG 0.3 μg/mL, Col 10 μg/mL, ADP 8.3 μM/L, cited from earlier work
# [3] = system: blood sampled from a patient being administered an antithrombotic agent; experiment: Thromboelastograph of blood sampled after administration of an antithrombotic agent, with anticoagulant with or without ADP or collagen added; format: in vivo, human; settings: for R value: ADP 8.3 μM, collagen 10 μg/mL
# Source text: as §1, §2, §3
# An example of the administration of aspirin as an antithrombotic agent will be described. First, 81 mg/day of aspirin was administered for three days. Blood sampled one hour after oral administration of 40.5 mg of aspirin thereafter was measured using a thromboelastograph. Specifically, thromboelastographic measurements were simultaneously carried out on the sampled blood itself, the same blood with 0.1 U/mL of heparin or 0.31 μg/mL of argatroban added, and blood obtained by adding 8.3 μM of ADP or 10 μg/mL of collagen to these.
# Also, 660 mg/day of aspirin was administered for three days, and the blood sampled one hour after oral administration of 330 mg thereafter was measured in the same manner by using a thromboelastograph. […]
# whole blood = settings: ADP final concentration 8.3 μM or collagen 10 μg/mL, mean±standard deviation, cited from earlier work; for M A (maximum amplitude): in mm (unit assumed)
# [4] = Comparative Example, blood with no antithrombotic agent administered
# [5] = no Pletaal administered (Example 3), heparin 0.1 U/mL, argatroban 0.31 μg/mL, ADP 8.3 μM, collagen 10 μg/mL
# [6] = no sulpyrine administered (Example 2), heparin 0.1 U/mL, argatroban 0.31 μg/mL, ADP 8.3 μM, collagen 10 μg/mL
compound,measurement,setting,value
heparin,R value,blood [1]; [4],26.4 ± 10.6
same,R value,"blood [1]; Comparative Example, blood with no antithrombotic agent administered, listed as heparin",lengthens
same,R value,blood [1]; [5],28.6 ± 9.5
same,R value,blood [1]; [6],26.4 ± 10.6
same,A N G (rapidity of clot formation),blood [2],39.1 ± 13.9
same,K,blood [2],11.4 ± 6.2
same,R,blood [2],26.4 ± 10.6
same,K,blood [2]; listed as heparin,lengthen
same,R,blood [2]; listed as heparin,lengthen
"O=C1CCc2cc(OCCCCc3nnnn3C3CCCCC3)ccc2N1 [Cil, cilostazol]",assessment of efficacy of the administered dose (R value shortened by ADP and collagen or not),[3]; 200 mg/day of Pletaal,functions adequately
same,R value,"[3]; 200 mg/day of Pletaal for five days, blood sampled one hour after oral 100 mg, heparin 0.04 U/mL, argatroban 0.06 μg/mL",14.5 ± 3.7
same,time until the blood begins to coagulate,"[3]; Pletaal administered, 0.1 U/mL of heparin and 0.31 μg/mL of argatroban used, R value could not be determined",more than 3 hours
"CC1CNc2c(cccc2S(=O)(=O)N[C@@H](CCCNC(=N)N)C(=O)N2CC[C@@H](C)C[C@@H]2C(=O)O)C1 (stereo partly shown) [ARG, argatroban]",R value,blood [1]; [4],29.8 ± 11.5
same,R value,"blood [1]; Comparative Example, blood with no antithrombotic agent administered, listed as argatroban",lengthens
same,R value,blood [1]; [5],29.7 ± 10.5
same,R value,blood [1]; [6],29.8 ± 9.5
same,A N G (rapidity of clot formation),blood [2],44.5 ± 14.6
same,K,blood [2],9.8 ± 5.1
same,R,blood [2],29.8 ± 11.5
same,K,blood [2]; listed as argatroban,lengthen
same,R,blood [2]; listed as argatroban,lengthen
"Nc1ncnc2c1ncn2[C@@H]1O[C@H](COP(=O)(O)OP(=O)(O)O)[C@@H](O)[C@H]1O [ADP, adenosine diphosphate]",M A (maximum amplitude),whole blood,57.9 ± 2.6
same,change of the R value lengthened by anticoagulant when ADP or collagen is added,blood [1],shortens significantly
"CC(=O)Oc1ccccc1C(=O)O [ASP, aspirin]",assessment of efficacy of the administered dose (R value shortened by ADP and collagen or not),[3]; 81 mg/day of aspirin for three days,insufficient to function effectively
same,R value,"[3]; 81 mg/day of aspirin for three days, blood sampled one hour after oral 40.5 mg, heparin 0.1 U/mL, argatroban 0.31 μg/mL",6.4 ± 1.5
same,assessment of efficacy of the administered dose (R value shortened by ADP and collagen or not),[3]; 660 mg/day of aspirin for three days,function adequately
same,R value,"[3]; 660 mg/day of aspirin for three days, blood sampled one hour after oral 330 mg, heparin 0.1 U/mL, argatroban 0.31 μg/mL",6.67 ± 1.7
collagen [Col.],K (time it takes a clot to be formed),whole blood; in min (unit assumed),2.5 ± 0.5
same,R (time it takes for fibrin to be formed),whole blood; in min (unit assumed),5.3 ± 1.4
same,M A (maximum amplitude),whole blood,57.9 ± 3.9
same,K (time it takes a clot to be formed),whole blood; listed as collagen,no significant difference
same,R (time it takes for fibrin to be formed),whole blood; listed as collagen,shortens significantly
same,R + K,whole blood; listed as collagen,shortens significantly
same,R + K,whole blood,7.8 ± 1.5
same,change of the R value lengthened by anticoagulant when ADP or collagen is added,blood [1],shortens significantly
"Cc1c(N(C)CS(=O)(=O)[O-])c(=O)n(-c2ccccc2)n1C.[Na+] [Sulp, sulpyrine]",assessment of efficacy of the administered dose (R value shortened by ADP and collagen or not),[3]; 250 mg of sulpyrine injected intramuscularly,functions adequately
same,R value,"[3]; blood sampled one hour after intramuscular injection of 250 mg of sulpyrine, heparin 0.1 U/mL, argatroban 0.31 μg/mL",6.9 ± 2.1
